Measurements from the SangsterLogP compilation.

| SMILES | logP |
| --- | --- |
| CC(=O)OC(C)C | 1.02 |
| CCCCCCCCCCBr | 6 |
| CCCCF | 2 |
| CCCCCC(=O)OC | 2.42 |
| CCC(=O)OC(C)C | 1.57 |
| C=CCC=CC | 3.16 |
| CCOC=O | 0.27 |
| CC1CCCO1 (centres undefined) | 1.25 |
| CC(C)CBr | 2.53 |
| CCCCCCCCCCc1ccccc1 | 7.4 |
| CCCCCCCl | 3.66 |
| CCCCCCCCCl | 4.73 |
| CC(C)Br | 2.1 |
| C=CCCC | 2.8 |
| ClCCCCCl | 2.24 |
| CCC(C)(C)c1ccc(O)cc1 | 3.83 |
| CCCI | 2.54 |
| CCCOC(=O)CCC | 2.15 |
| OC1CCCCCC1 | 1.83 |
| CCCOC(=O)CC | 1.71 |
| CCCCI | 3.08 |
| CC(C)CCl | 2.39 |
| ClCC(Cl)(Cl)Cl | 2.66 |
| CCCCCCI | 4.16 |
| CCCCCCl | 3.11 |

Next, values leading:

| logP | SMILES |
| --- | --- |
| 3.87 | CCCCCCCCC(=O)OC |
| 1.46 | C#CCC |
| 1.53 | CCCC(C)(C)O |
| 2.39 | OC1CCCCCCC1 |
| 1.71 | CCCC(=O)OCC |
| 5.65 | CCCCCCCCC |
| 1.48 | CC(C)C(C)(C)O |
| 3.32 | C#CCCCCC |
| 4.51 | C#CCCCCCCC |
| 2.04 | CCCC(=O)CCC |
| 3.36 | CCCCOC(=O)CCCC |
| 8 | CCCCCCCCCCCCCC |
| 2.88 | CCCCC(=O)CCCC |
| 3.92 | C#CCCCCCC |
| 2.3 | CCCCC(=O)OCC |
| 1.55 | CCOC(=O)C(C)C |
| 1.88 | CCN1CCCCC1 |
| 5.19 | CCC(C)(C)CC |
| 3.62 | CCCCCI |
